In ChEMBL document CHEMBL4392879, “Secondary Metabolites of Onygenales Fungi Exemplified by Aioliomyces pyridodomos” (J Nat Prod, 2019):
In brackets after ≈: the same amount, converted by molar mass.

Tested on: Histoplasma capsulatum
Assay: Antifungal activity against Histoplasma capsulatum G217B after 10 to 14 days by microscopic method
Assay type: functional, organism-based

| Structure (SMILES) | IC50 [µg/mL] |
| --- | --- |
| C/C=C/C=C/c1c(CC=C(C)C)cc(CC=C(C)C)c(O)c1CO | 8 (≈ 24.5 µM) |
| C/C=C/C=C/c1c(CC=C(C)C)cc2c(c1CO)OC(C)(C)C(O)C2=O (stereo unspecified) | 16 (≈ 44.9 µM) |
| CC(C)=CCc1cc2c(c3c1[C@@H]1C[C@H](C3=O)[C@@H]1C)OC(C)(C)[C@H](O)C2=O | 64 (≈ 181 µM) |
| CC(C)=CCc1cc2c(c3c1[C@@H]1C[C@H](C3=O)[C@@H]1C)OC(C)(C)[C@@H](O)C2=O | 32 (≈ 90.3 µM) |
| C[C@@H]1[C@H](O)[C@@H](C)/C=C/C=C/C=C/C=C/C=C/C=C/C=C/[C@H](O[C@@H]2O[C@H](C)[C@@H](O)[C@H](N)[C@@H]2O)C[C@@H]2O[C@](O)(C[C@@H](O)C[C@@H](O)[C@H](O)CC[C@@H](O)C[C@@H](O)CC(=O)O[C@H]1C)C[C@H](O)[C@H]2C(=O)O [AMPHOTERICIN B] | 0.5 (≈ 0.541 µM) |
| CCC(C)n1ncn(-c2ccc(N3CCN(c4ccc(OCC5COC(Cn6cncn6)(c6ccc(Cl)cc6Cl)O5)cc4)CC3)cc2)c1=O (stereo unspecified) [ITRACONAZOLE] | 0.001 (≈ 0.00142 µM) |
